Several values for one entry are separate records, joined by “and”; a condition that tells them apart may be missing. Identical values can stand only once. Like-named read-outs stand apart in the source and are kept apart here.
Target: T1, human TdT (Homo sapiens, UniProt P04053)
T1 construct: purchased Trevigen (Gaithersburg, MD)
Assay: Terminal transferase assay, TdT
Assay type: biochemical
Conditions: for IC50: human TdT
Procedure: Recombinant full-length human DNA polymerase λ and β were generated and purified as described. After purification, the protein was >90% homogeneous, as judged by sodium dodecyl sulphate (SDS)−polyacrylamide gel electrophoresis (PAGE) and Coomassie staining. TdT was from Trevigen (Gaithersburg, MD).
Terminal Transferase Assay. DNA polymerase λ and TdT terminal transferase activities were assayed in a final volume of 25 μL containing 50 mM Tris-HCl (pH 7.0), 0.25 mg/mL BSA, 1 mM DTT, 0.2 μM ss 30mer (AAC)10 DNA oligonucleotide, 25 μM [3H]dNTPs (10 Ci/mmol) and 0.5 mM MnCl2 or 5 mM MgCl2 used as cofactors. Terminal transferase activity was monitored in the presence of 10% DMSO or in the presence of increasing amounts of inhibitors dissolved in DMSO. All reactions were incubated for 10 min at 37 °C and the DNA precipitated with 10% trichloroacetic acid. Insoluble radioactive material was determined by scintillation counting using Trilux beta-counter (PerkinElmer) as described.
Dose − response curves were generated by computer fitting of the data to the equation E(%) = Emax/(1 + I/ID50) where E(%) is the fraction of enzyme’s activity measured in the presence of the inhibitor, Emax is the activity in the absence of the inhibitor, I is the inhibitor concentration, and ID50 is the inhibitor concentration at which E(%) = 0.5 Emax. ID50 values were generated using GraphPad Prism 6.

[1] = Mg2+ as cofactor, read-out: ID50 (µM) Mg2+
[2] = Mn2+ as cofactor, read-out: ID50 (µM) Mn2+

T1 sequence (P04053 whole entry): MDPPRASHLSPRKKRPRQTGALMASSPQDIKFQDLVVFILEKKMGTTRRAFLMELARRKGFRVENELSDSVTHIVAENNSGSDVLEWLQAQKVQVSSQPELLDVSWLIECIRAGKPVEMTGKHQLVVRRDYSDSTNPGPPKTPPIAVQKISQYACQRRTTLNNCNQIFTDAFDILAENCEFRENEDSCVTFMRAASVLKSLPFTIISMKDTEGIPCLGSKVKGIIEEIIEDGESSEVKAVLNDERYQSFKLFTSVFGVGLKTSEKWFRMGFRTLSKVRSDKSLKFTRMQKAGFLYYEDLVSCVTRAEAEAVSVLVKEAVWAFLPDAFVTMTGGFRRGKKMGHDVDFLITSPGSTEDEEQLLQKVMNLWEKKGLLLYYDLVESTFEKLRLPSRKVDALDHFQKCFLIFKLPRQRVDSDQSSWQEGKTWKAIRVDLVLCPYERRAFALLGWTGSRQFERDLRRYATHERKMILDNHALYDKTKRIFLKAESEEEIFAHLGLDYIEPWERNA

Compound	IC50 [1]	IC50 [2] [µM]	further results
COc1cc(C(=O)c2c[nH]c(/C=C/C(=O)/C=C(\O)C(=O)O)c2)cc(OC)c1OC [Compound 6k]	0.86 ± 0.14 µM	0.38 ± 0.06	–
CCOC(=O)/C(O)=C/C(=O)c1cc(-c2ccccc2)cn1Cc1ccc(F)cc1 [Compound 9b, Ethyl (Z)-4-(1-(4-fluorobenzyl)-4-phenyl-1H-pyrrol-2-yl)-2-hydroxy-4-oxobut-2-enoate]	–	> 50	–
CCOC(=O)/C(O)=C/C(=O)/C=C/c1ccn(Cc2ccc(F)cc2)c1 [Compound 7a, Ethyl (2Z,5E)-6-(1-(4-fluorobenzyl)-1H-pyrrol-3-yl)-2-hydroxy-4-oxohexa-2,5-dienoate]	–	> 50	–
CCOC(=O)/C(O)=C/C(=O)c1cccn1Cc1ccc(F)cc1 [Compound 9a, Ethyl (Z)-4-(1-(4-fluorobenzyl)-1H-pyrrol-2-yl)-2-hydroxy-4-oxobut-2-enoate]	–	> 50	–
CCOC(=O)/C(O)=C/C(=O)/C=C/c1cc(C(=O)c2ccccc2)cn1Cc1cccc2ccccc12 [Compound 5j]	3.68 ± 1 µM	> 50	–
CCOC(=O)/C(O)=C/C(=O)/C=C/c1cc(C(=O)c2ccccc2)c[nH]1 [Compound 5l, (2Z,5E)-ethyl 6-(4-benzoyl-1H-pyrrol-2-yl)-2-hydroxy-4-oxohexa-2,5-dienoate]	37.8 µM and 35.8 µM	> 50	–
CCOC(=O)/C(O)=C/C(=O)c1ccn(Cc2ccc(F)cc2)c1 [Compound 11a, Ethyl (Z)-4-(1-(4-fluorobenzyl)-1H-pyrrol-3-yl)-2-hydroxy-4-oxobut-2-enoate]	–	> 50	–
CCOC(=O)/C(O)=C/C(=O)/C=C/c1cc(C(=O)c2ccc(NC(=O)c3ccc(OC)c(Br)c3)cc2)cn1Cc1ccc(F)cc1 [Compound 5g]	0.91 ± 0.36 µM	> 50	–
O=C(O)/C(O)=C/C(=O)c1ccn(Cc2ccc(F)cc2)c1 [Compound 12a, (Z)-4-(1-(4-fluorobenzyl)-1H-pyrrol-3-yl)-2-hydroxy-4-oxobut-2-enoic acid]	–	2.8 ± 0.7	–
O=C(/C=C(\O)C(=O)O)/C=C/c1cc(C(=O)c2ccccc2)cn1Cc1cccc2ccccc12 [Compound 6j]	2.11 ± 0.5 µM	> 50	–
COc1ccc(C(=O)Nc2ccc(C(=O)c3cc(/C=C/C(=O)/C=C(\O)C(=O)O)n(Cc4ccc(F)cc4)c3)cc2)cc1Br [Compound 6g]	0.41 ± 0.03 µM	> 50	–
CCOC(=O)/C(O)=C/C(=O)/C=C/c1cc(C(=O)c2ccc3c(c2)OCCO3)cn1Cc1ccc(F)cc1 [Compound 5c]	–	> 50	–
O=C(/C=C(\O)C(=O)O)/C=C/c1c[nH]cc1-c1ccccc1 [Compound 8c]	–	0.19 ± 0.08	improvement in inhibitory activity in respect to hit compound 4 (TdT): higher than 3 times
CCOC(=O)/C(O)=C/C(=O)/C=C/c1cccn1Cc1ccc(F)cc1 [Compound 5a, Ethyl (2Z,5E)-6-(1-(4-fluorobenzyl)-1H-pyrrol-2-yl)-2-hydroxy-4-oxohexa-2,5-dienoate]	–	> 50	–
CCOC(=O)/C(O)=C/C(=O)/C=C/c1cc(-c2ccccc2)cn1Cc1ccc(F)cc1 [Compound 5b, Ethyl (2Z,5E)-6-(1-(4-fluorobenzyl)-4-phenyl-1H-pyrrol-2-yl)-2-hydroxy-4-oxohexa-2,5-dienoate]	–	> 50	–
O=C(O)/C(O)=C/C(=O)c1cc(-c2ccccc2)cn1Cc1ccc(F)cc1 [Compound 10b, (Z)-4-(1-(4-fluorobenzyl)-4-phenyl-1H-pyrrol-2-yl)-2-hydroxy-4-oxobut-2-enoic acid]	–	3.25 ± 0.66	–
(E)-6-(1-(4-fluorobenzyl)-4-(4-phenoxybenzoyl)-1H-pyrrol-2-yl)-2,4-dioxohex-5-enoic acid [Compound 6e]	–	>50	–
O=C(O)/C(O)=C/C(=O)c1cccn1Cc1ccc(F)cc1 [Compound 10a, (Z)-4-(1-(4-fluorobenzyl)-1H-pyrrol-2-yl)-2-hydroxy-4-oxobut-2-enoic acid]	–	1.16 ± 0.35	–

Compound	IC50 [1]	IC50 [2] [µM]	further results
O=C(/C=C(\O)C(=O)O)/C=C/c1cccn1Cc1ccc(F)cc1 [Compound 6a, (2Z,5E)-6-(1-(4-fluorobenzyl)-1H-pyrrol-2-yl)-2-hydroxy-4-oxohexa-2,5-dienoic acid]	> 50 µM	1.63 ± 0.35	times higher activity than 4-phenyl counterpart 6b (TdT, Mn2+, ratio of ID50): 4 times; times more active than the hit compound 2 (TdT, Mn2+, ratio of ID50): about 6 times
CCOC(=O)/C(O)=C/C(=O)/C=C/c1c[nH]cc1-c1ccccc1 [Compound 7c]	10.5 ± 3.6 µM	> 50	–
O=C(/C=C(\O)C(=O)O)/C=C/c1cc(C(=O)c2ccc3c(c2)OCCO3)cn1Cc1ccc(F)cc1 [Compound 6c]	–	4.07 ± 0.81	–
CCOC(=O)/C(O)=C/C(=O)/C=C/c1cc(C(=O)c2ccc(OCc3ccc4ccccc4c3)cc2)cn1Cc1ccc(F)cc1 [Compound 5d]	5.83 ± 1.76 µM	> 50	–
CCOC(=O)/C(O)=C/C(=O)/C=C/c1cc(C(=O)c2ccccc2)cn1S(=O)(=O)c1ccc(F)cc1 [Compound 5m]	3.87 ± 0.55 µM	8.75 ± 0.35	–
O=C(/C=C(\O)C(=O)O)/C=C/c1cc(C(=O)c2ccccc2)cn1S(=O)(=O)c1ccc(F)cc1 [Compound 6m]	0.34 ± 0.01 µM	0.33 ± 0.05	–
O=C(/C=C(\O)C(=O)O)/C=C/c1ccn(Cc2ccc(F)cc2)c1 [Compound 8a, (2Z,5E)-6-(1-(4-fluorobenzyl)-1H-pyrrol-3-yl)-2-hydroxy-4-oxohexa-2,5-dienoic acid]	–	6.31 ± 2.8	–
O=C(/C=C(\O)C(=O)O)/C=C/c1cc(-c2ccccc2)cn1Cc1ccc(F)cc1 [Compound 6b, (2Z,5E)-6-(1-(4-fluorobenzyl)-4-phenyl-1H-pyrrol-2-yl)-2-hydroxy-4-oxohexa-2,5-dienoic acid]	> 50 µM	6.9 ± 2.5	–
CCOC(=O)/C(O)=C\C(=O)/C=C/c1cc(C(=O)c2ccc([N+](=O)[O-])cc2)cn1Cc1ccc(F)cc1 [Compound 5f]	6.54 ± 0.78 µM	> 50	–
COc1cc(-c2c[nH]cc2/C=C/C(=O)/C=C(\O)C(=O)O)cc(OC)c1OC [Compound 8d]	0.24 ± 0.03 µM	0.23 ± 0.03	–
CCOC(=O)/C(O)=C/C(=O)/C=C/c1c[nH]cc1-c1cc(OC)c(OC)c(OC)c1 [Compound 7d]	21.3 ± 5.05 µM	> 50	–
O=C(/C=C/c1cc(C(=O)c2ccc([N+](=O)[O-])cc2)cn1Cc1ccc(F)cc1)/C=C(/O)C(=O)O [Compound 6f]	0.64 ± 0.25 µM	7.71 ± 2.4	–
O=C(/C=C(\O)C(=O)O)/C=C/c1cc(C(=O)c2ccccc2)c[nH]1 [Compound 6l, (2Z,5E)-6-(4-benzoyl-1H-pyrrol-2-yl)-2-hydroxy-4-oxohexa-2,5-dienoic acid]	0.22 ± 0.01 µM	0.3 ± 0.13	–
O=C(/C=C(\O)C(=O)O)/C=C/c1cc(C(=O)c2ccc(OCc3ccc4ccccc4c3)cc2)cn1Cc1ccc(F)cc1 [Compound 6d]	12.8 ± 4.2 µM	> 50	–
O=C(/C=C(\O)C(=O)O)/C=C/c1cn(Cc2ccc(F)cc2)cc1-c1ccccc1 [Compound 8b, (2Z,5E)-6-(1-(4-fluorobenzyl)-4-phenyl-1H-pyrrol-3-yl)-2-hydroxy-4-oxohexa-2,5-dienoic acid]	–	0.66 ± 0.12	–
CCOC(=O)/C(O)=C/C(=O)/C=C/c1cc(C(=O)c2cc(OC)c(OC)c(OC)c2)c[nH]1 [Compound 5k]	10.6 ± 3.6 µM	1.28 ± 0.27	times lower potency than acid counterpart 6k (TdT, Mn2+, ratio of ID50): 3 times
CCOC(=O)/C(O)=C/C(=O)/C=C/c1cn(Cc2ccc(F)cc2)cc1-c1ccccc1 [Compound 7b, Ethyl (2Z,5E)-6-(1-(4-fluorobenzyl)-4-phenyl-1H-pyrrol-3-yl)-2-hydroxy-4-oxohexa-2,5-dienoate]	–	2.72 ± 0.73	–
